Assay results from ChEMBL document CHEMBL1201862, “PubChem BioAssay data set” (2004).
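Assay format: 96-well plates, 48-hour exposure. At the GI50, growth is halved.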 Calls of active or inactive are those of the source. Cut-off read from the data, not from the text of the source: active = GI50 up to about 1.1 µM and inactive = higher.

What was measured:
Assay in all cases: DTP human tumour cell line panel, 48 h
[1] = system: KM12
[2] = system: SK-MEL-2
[3] = system: A498
[4] = system: K562
[5] = system: SK-OV-3
[6] = system: CAKI-1
[7] = system: IGROV-1
[8] = system: COLO 205
[9] = system: EKVX
[10] = system: HOP-62
[11] = system: NCI-H23
[12] = system: OVCAR-3
[13] = system: A549
[14] = system: SF-295
[15] = system: T47D
[16] = system: SF-539
[17] = system: HOP-92
[18] = system: MOLT-4
[19] = system: RXF 393
[20] = system: TK-10
[21] = system: NCI-H226
[22] = system: DU-145
[23] = system: UACC-62
[24] = system: LOX IMVI
[25] = system: Hs-578T
[26] = system: HCT-15
[27] = system: SK-MEL-28
[28] = system: BT-549
[29] = system: SNB-75
[30] = system: UACC-257
[31] = system: NCI/ADR-RES
[32] = system: MDA-MB-435
[33] = system: CCRF-CEM
[34] = system: NCI-H522
[35] = system: UO-31
[36] = system: RPMI-8226
[37] = system: SW-620
[38] = system: MDA-N
[39] = system: Malme-3M
[40] = system: OVCAR-8
[41] = system: SF-268
[42] = system: ACHN
[43] = system: HCT-116
[44] = system: 786-0
[45] = system: NCI-H460
[46] = system: OVCAR-5
[47] = system: HCC 2998
[48] = system: MDA-MB-231
[49] = system: SK-MEL-5
[50] = system: HT-29
[51] = system: OVCAR-4
[52] = system: MCF7
[53] = system: HL-60
[54] = system: PC-3
[55] = system: SN12C
[56] = system: SR
[57] = system: U-251
[58] = system: SNB-19
[59] = system: M14

Compound: c1cc2nsnc2c2c[nH]cc12
- GI50 [1]: > 100 µM (inactive)
- GI50 [2]: > 100 µM (inactive)
- GI50 [3]: 24.7 µM (inactive)
- GI50 [4]: 49.1 µM (inactive)
- GI50 [5]: > 100 µM (inactive)
- GI50 [6]: > 100 µM (inactive)
- GI50 [7]: 43.7 µM (inactive)
- GI50 [8]: > 100 µM (inactive)
- GI50 [9]: 26.9 µM (inactive)
- GI50 [10]: > 100 µM (inactive)
- GI50 [11]: > 100 µM (inactive)
- GI50 [12]: > 100 µM (inactive)
- GI50 [13]: 64.9 µM (inactive)
- GI50 [14]: > 100 µM (inactive)
- GI50 [15]: 21 µM (inactive)
- GI50 [16]: > 100 µM (inactive)
- GI50 [17]: 28.1 µM (inactive)
- GI50 [18]: 85.3 µM (inactive)
- GI50 [19]: 52.7 µM (inactive)
- GI50 [20]: > 100 µM (inactive)
- GI50 [21]: 99.5 µM (inactive)
- GI50 [22]: > 100 µM (inactive)
- GI50 [23]: 42.9 µM (inactive)
- GI50 [24]: > 100 µM (inactive)
- GI50 [25]: 48.1 µM (inactive)
- GI50 [26]: 99.5 µM
- GI50 [27]: > 100 µM (inactive)
- GI50 [28]: 49.7 µM (inactive)
- GI50 [29]: 50.6 µM (inactive)
- GI50 [30]: > 100 µM (inactive)
- GI50 [31]: 61.5 µM (inactive)
- GI50 [32]: 40.6 µM (inactive)
- GI50 [33]: > 100 µM (inactive)
- GI50 [34]: 56.5 µM (inactive)
- GI50 [35]: 25.5 µM (inactive)
- GI50 [36]: > 100 µM (inactive)
- GI50 [37]: > 100 µM (inactive)
- GI50 [38]: 71.4 µM (inactive)
- GI50 [39]: > 100 µM (inactive)
- GI50 [40]: 34.2 µM (inactive)
- GI50 [41]: > 100 µM (inactive)
- GI50 [42]: 81.5 µM (inactive)
- GI50 [43]: > 100 µM (inactive)
- GI50 [44]: > 100 µM (inactive)
- GI50 [45]: 86.3 µM (inactive)
- GI50 [46]: 47.4 µM (inactive)
- GI50 [47]: > 100 µM (inactive)
- GI50 [48]: 56.6 µM (inactive)
- GI50 [49]: 61.4 µM (inactive)
- GI50 [50]: > 100 µM (inactive)
- GI50 [51]: > 100 µM (inactive)
- GI50 [52]: 34.7 µM (inactive)
- GI50 [53]: 67.1 µM (inactive)
- GI50 [54]: 45.1 µM (inactive)
- GI50 [55]: > 100 µM (inactive)
- GI50 [56]: 96.6 µM (inactive)

Compound: CSc1c(C#N)c(O)nc(N)c1C(=O)Nc1ccc(Cl)cc1
- GI50 [1]: 7.96 µM (inactive)
- GI50 [2]: 6.25 µM (inactive)
- GI50 [3]: 16.6 µM (inactive)
- GI50 [4]: 4.54 µM (inactive)
- GI50 [5]: 23.3 µM (inactive)
- GI50 [6]: 12.6 µM (inactive)
- GI50 [7]: 23.2 µM (inactive)
- GI50 [8]: 10.6 µM (inactive)
- GI50 [9]: 14.9 µM (inactive)
- GI50 [10]: 16 µM (inactive)
- GI50 [11]: 16.8 µM (inactive)
- GI50 [12]: 14.9 µM (inactive)
- GI50 [13]: 13.4 µM (inactive)
- GI50 [14]: 11 µM (inactive)
- GI50 [15]: 8.38 µM (inactive)
- GI50 [16]: 16.4 µM (inactive)
- GI50 [57]: 19.5 µM (inactive)
- GI50 [17]: 21.7 µM (inactive)
- GI50 [18]: 18.8 µM (inactive)
- GI50 [19]: 23.6 µM (inactive)
- GI50 [20]: 29.3 µM (inactive)
- GI50 [21]: 28 µM (inactive)
- GI50 [22]: 17.5 µM (inactive)
- GI50 [23]: 0.853 µM (active)
- GI50 [24]: 1.74 µM (inactive)
- GI50 [25]: 31 µM (inactive)
- GI50 [26]: 11.5 µM
- GI50 [27]: 14.7 µM (inactive)
- GI50 [28]: 24.5 µM (inactive)
- GI50 [29]: 37.8 µM (inactive)
- GI50 [30]: 6.78 µM (inactive)
- GI50 [58]: 31.8 µM (inactive)
- GI50 [31]: 17.4 µM (inactive)
- GI50 [32]: 3.55 µM (inactive)
- GI50 [33]: 30.3 µM (inactive)
- GI50 [34]: 14.1 µM (inactive)
- GI50 [35]: 11.2 µM (inactive)
- GI50 [36]: 11.2 µM (inactive)
- GI50 [37]: 5.65 µM (inactive)
- GI50 [38]: 12 µM (inactive)
- GI50 [39]: 26.5 µM (inactive)
- GI50 [40]: 19.1 µM (inactive)
- GI50 [41]: 19.5 µM (inactive)
- GI50 [42]: 3.18 µM (inactive)
- GI50 [43]: 5.45 µM (inactive)
- GI50 [44]: 7.36 µM (inactive)
- GI50 [45]: 6.32 µM (inactive)
- GI50 [46]: 33 µM (inactive)
- GI50 [47]: 11.5 µM (inactive)
- GI50 [48]: 15.6 µM (inactive)
- GI50 [49]: 10.4 µM (inactive)
- GI50 [50]: 22.2 µM (inactive)
- GI50 [51]: 31.4 µM (inactive)
- GI50 [52]: 8.63 µM (inactive)
- GI50 [59]: 5.2 µM (inactive)
- GI50 [53]: 13.2 µM (inactive)
- GI50 [54]: 13.2 µM (inactive)
- GI50 [55]: 23.8 µM (inactive)
- GI50 [56]: > 69.2 µM (inactive)
